Results reported in the NIST ThermoML archive (doi:10.1016/j.jct.2007.11.010).
Numbers after ± are expanded uncertainties.

Experiment: xn = mol fraction of the nth substance listed
Settings: 101 kPa, Liquid

SMILES: OCCN1CCOCC1 [4-morpholineethanol] + CCCO
- mass density (293.15 K, x1 = 0.0441): 830.17 ± 0.82 kg/m3
- mass density (293.15 K, x1 = 0.1025): 854.6 ± 0.7 kg/m3
- mass density (293.15 K, x1 = 0.1771): 883.51 ± 0.67 kg/m3
- mass density (293.15 K, x1 = 0.2366): 905.01 ± 0.61 kg/m3
- mass density (293.15 K, x1 = 0.2772): 919.15 ± 0.58 kg/m3
- mass density (293.15 K, x1 = 0.3146): 931.56 ± 0.55 kg/m3
- mass density (293.15 K, x1 = 0.3771): 951.28 ± 0.5 kg/m3
- mass density (293.15 K, x1 = 0.4165): 962.97 ± 0.47 kg/m3
- mass density (293.15 K, x1 = 0.478): 980.28 ± 0.43 kg/m3
- mass density (293.15 K, x1 = 0.5135): 989.72 ± 0.41 kg/m3
- mass density (293.15 K, x1 = 0.5792): 1006.06 ± 0.4 kg/m3
- mass density (293.15 K, x1 = 0.632): 1018.06 ± 0.45 kg/m3
- mass density (293.15 K, x1 = 0.6797): 1028.12 ± 0.49 kg/m3
- mass density (293.15 K, x1 = 0.7337): 1038.68 ± 0.53 kg/m3
- mass density (293.15 K, x1 = 0.7753): 1046.19 ± 0.56 kg/m3
- mass density (293.15 K, x1 = 0.8136): 1052.76 ± 0.59 kg/m3
- mass density (293.15 K, x1 = 0.8739): 1062.19 ± 0.64 kg/m3
- mass density (293.15 K, x1 = 0.9145): 1067.81 ± 0.67 kg/m3
- mass density (293.15 K, x1 = 0.9442): 1071.98 ± 0.69 kg/m3
- mass density (293.15 K, x1 = 0.9742): 1076.35 ± 0.71 kg/m3
- mass density (298.15 K, x1 = 0.0441): 823.23 ± 0.84 kg/m3
- mass density (298.15 K, x1 = 0.1025): 847.85 ± 0.77 kg/m3
- mass density (298.15 K, x1 = 0.1771): 877.01 ± 0.69 kg/m3
- mass density (298.15 K, x1 = 0.2366): 898.71 ± 0.63 kg/m3
- mass density (298.15 K, x1 = 0.2772): 912.99 ± 0.6 kg/m3
- mass density (298.15 K, x1 = 0.3146): 925.53 ± 0.56 kg/m3
- mass density (298.15 K, x1 = 0.3771): 945.46 ± 0.52 kg/m3
- mass density (298.15 K, x1 = 0.4165): 957.29 ± 0.49 kg/m3
- mass density (298.15 K, x1 = 0.478): 974.81 ± 0.45 kg/m3
- mass density (298.15 K, x1 = 0.5135): 984.38 ± 0.43 kg/m3
- mass density (298.15 K, x1 = 0.5792): 1000.96 ± 0.39 kg/m3
- mass density (298.15 K, x1 = 0.632): 1013.14 ± 0.43 kg/m3
- mass density (298.15 K, x1 = 0.6797): 1023.38 ± 0.47 kg/m3
- mass density (298.15 K, x1 = 0.7337): 1034.12 ± 0.52 kg/m3
- mass density (298.15 K, x1 = 0.7753): 1041.78 ± 0.55 kg/m3
- mass density (298.15 K, x1 = 0.8136): 1048.48 ± 0.58 kg/m3
- mass density (298.15 K, x1 = 0.8739): 1058.11 ± 0.62 kg/m3
- mass density (298.15 K, x1 = 0.9145): 1063.88 ± 0.65 kg/m3
- mass density (298.15 K, x1 = 0.9442): 1068.14 ± 0.67 kg/m3
- mass density (298.15 K, x1 = 0.9742): 1072.61 ± 0.7 kg/m3
- mass density (303.15 K, x1 = 0.0441): 815.35 ± 0.86 kg/m3
- mass density (303.15 K, x1 = 0.1025): 839.76 ± 0.79 kg/m3
- mass density (303.15 K, x1 = 0.1771): 868.66 ± 0.71 kg/m3
- mass density (303.15 K, x1 = 0.2366): 890.18 ± 0.66 kg/m3
- mass density (303.15 K, x1 = 0.2772): 904.34 ± 0.62 kg/m3
- mass density (303.15 K, x1 = 0.3146): 916.77 ± 0.59 kg/m3
- mass density (303.15 K, x1 = 0.3771): 936.54 ± 0.54 kg/m3
- mass density (303.15 K, x1 = 0.4165): 948.27 ± 0.51 kg/m3
- mass density (303.15 K, x1 = 0.478): 965.64 ± 0.48 kg/m3
- mass density (303.15 K, x1 = 0.5135): 975.14 ± 0.45 kg/m3
- mass density (303.15 K, x1 = 0.5792): 991.58 ± 0.41 kg/m3
- mass density (303.15 K, x1 = 0.632): 1003.67 ± 0.4 kg/m3
- mass density (303.15 K, x1 = 0.6797): 1013.83 ± 0.44 kg/m3
- mass density (303.15 K, x1 = 0.7337): 1024.5 ± 0.5 kg/m3
- mass density (303.15 K, x1 = 0.7753): 1032.12 ± 0.52 kg/m3
- mass density (303.15 K, x1 = 0.8136): 1038.78 ± 0.55 kg/m3
- mass density (303.15 K, x1 = 0.8739): 1048.36 ± 0.59 kg/m3
- mass density (303.15 K, x1 = 0.9145): 1054.1 ± 0.6 kg/m3
- mass density (303.15 K, x1 = 0.9442): 1058.34 ± 0.64 kg/m3
- mass density (303.15 K, x1 = 0.9742): 1062.79 ± 0.66 kg/m3
- mass density (313.15 K, x1 = 0.0441): 807.23 ± 0.89 kg/m3
- mass density (313.15 K, x1 = 0.1025): 831.61 ± 0.82 kg/m3
- mass density (313.15 K, x1 = 0.1771): 860.49 ± 0.74 kg/m3
- mass density (313.15 K, x1 = 0.2366): 882 ± 1 kg/m3
- mass density (313.15 K, x1 = 0.2772): 896.16 ± 0.64 kg/m3
- mass density (313.15 K, x1 = 0.3146): 908.59 ± 0.61 kg/m3
- mass density (313.15 K, x1 = 0.3771): 928.37 ± 0.56 kg/m3
- mass density (313.15 K, x1 = 0.4165): 940.11 ± 0.54 kg/m3
- mass density (313.15 K, x1 = 0.478): 957.51 ± 0.5 kg/m3
- mass density (313.15 K, x1 = 0.5135): 967.02 ± 0.47 kg/m3
- mass density (313.15 K, x1 = 0.5792): 983.5 ± 0.4 kg/m3
- mass density (313.15 K, x1 = 0.632): 995.64 ± 0.4 kg/m3
- mass density (313.15 K, x1 = 0.6797): 1005.84 ± 0.41 kg/m3
- mass density (313.15 K, x1 = 0.7337): 1016.57 ± 0.46 kg/m3
- mass density (313.15 K, x1 = 0.7753): 1024.22 ± 0.49 kg/m3
- mass density (313.15 K, x1 = 0.8136): 1030.93 ± 0.52 kg/m3
- mass density (313.15 K, x1 = 0.8739): 1040.58 ± 0.56 kg/m3
- mass density (313.15 K, x1 = 0.9145): 1046.38 ± 0.59 kg/m3
- mass density (313.15 K, x1 = 0.9442): 1050.66 ± 0.61 kg/m3
- mass density (313.15 K, x1 = 0.9742): 1055.14 ± 0.63 kg/m3
- mass density (323.15 K, x1 = 0.0441): 799.06 ± 0.91 kg/m3
- mass density (323.15 K, x1 = 0.1025): 823.54 ± 0.84 kg/m3
- mass density (323.15 K, x1 = 0.1771): 852.56 ± 0.76 kg/m3
- mass density (323.15 K, x1 = 0.2366): 874.19 ± 0.7 kg/m3
- mass density (323.15 K, x1 = 0.2772): 888.43 ± 0.67 kg/m3
- mass density (323.15 K, x1 = 0.3146): 900.94 ± 0.64 kg/m3
- mass density (323.15 K, x1 = 0.3771): 920.85 ± 0.59 kg/m3
- mass density (323.15 K, x1 = 0.4165): 932.69 ± 0.56 kg/m3
- mass density (323.15 K, x1 = 0.478): 950.23 ± 0.52 kg/m3
- mass density (323.15 K, x1 = 0.5135): 959.82 ± 0.49 kg/m3
- mass density (323.15 K, x1 = 0.5792): 976.47 ± 0.45 kg/m3
- mass density (323.15 K, x1 = 0.632): 988.74 ± 0.42 kg/m3
- mass density (323.15 K, x1 = 0.6797): 999.07 ± 0.4 kg/m3
- mass density (323.15 K, x1 = 0.7337): 1009.94 ± 0.43 kg/m3
- mass density (323.15 K, x1 = 0.7753): 1017.71 ± 0.47 kg/m3
- mass density (323.15 K, x1 = 0.8136): 1024.51 ± 0.5 kg/m3
- mass density (323.15 K, x1 = 0.8739): 1034.34 ± 0.54 kg/m3
- mass density (323.15 K, x1 = 0.9145): 1040.25 ± 0.57 kg/m3
- mass density (323.15 K, x1 = 0.9442): 1044.61 ± 0.59 kg/m3
- mass density (323.15 K, x1 = 0.9742): 1049.16 ± 0.61 kg/m3
